Laboratory results: PMC3260308, “Substrate Specificity within a Family of Outer Membrane Carboxylate Channels” (PLoS Biology, 2012)
Like-named read-outs stand apart in the source and are kept apart here.

What was measured:
OccD1 (formerly OprD) [1] = target: T1, OccD1 (formerly OprD) (Pseudomonas aeruginosa, UniProt P32722); experiment: competition of arginine uptake in membrane vesicles; liposome swelling; type: biochemical; conditions: 10-fold excess over 0.25 uM 14C-arginine, pH 7.0, 25 C; uptake confirmed by liposome swelling
T1 construct: pB22, N-terminal hexa-histidine tag kept in vesicles; expressed in porin-deficient E. coli BL21 omp8; total membrane vesicles (purified protein for liposome swelling)
T1 sequence (P32722 24-443): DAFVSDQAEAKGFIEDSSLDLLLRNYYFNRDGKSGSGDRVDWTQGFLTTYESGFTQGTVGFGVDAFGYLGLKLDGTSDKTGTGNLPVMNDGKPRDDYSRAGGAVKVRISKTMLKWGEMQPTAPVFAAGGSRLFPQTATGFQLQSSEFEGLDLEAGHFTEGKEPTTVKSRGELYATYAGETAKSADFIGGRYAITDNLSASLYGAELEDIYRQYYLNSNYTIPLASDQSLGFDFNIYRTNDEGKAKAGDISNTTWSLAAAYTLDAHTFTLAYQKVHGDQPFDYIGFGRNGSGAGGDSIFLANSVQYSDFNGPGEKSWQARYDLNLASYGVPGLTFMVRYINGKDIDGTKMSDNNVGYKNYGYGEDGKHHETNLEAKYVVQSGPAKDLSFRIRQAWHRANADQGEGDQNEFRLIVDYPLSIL

OccD1 (P. aeruginosa) = OccD1 (P. aeruginosa) (UniProt P32722)
OccD1 (P. aeruginosa), sequence (P32722 24-443): as above

OccD1 (formerly OprD) [2] = target: T1, OccD1 (formerly OprD); type: biochemical; conditions: vs 0.25 uM 14C-arginine, 2.5 uM unlabelled compound, 10 mM HEPES pH 7.0, 25 C, 15 min
Excerpt: competition of radiolabelled uptake in total membrane vesicles on OccD1 (formerly OprD)

OccK4 = target: T2, OccK4 (Pseudomonas aeruginosa, UniProt Q9HWP4); experiment: radiolabelled uptake in total membrane vesicles; type: biochemical; conditions: 10 uM 14C-phenylacetate, 45 min; very low specific activity; labelled compound
T2 construct: gene PA4137; pB22, N-terminal hexa-histidine tag; expressed in E. coli BL21 omp8, total membrane vesicles
T2 sequence (Q9HWP4 entry or part of it): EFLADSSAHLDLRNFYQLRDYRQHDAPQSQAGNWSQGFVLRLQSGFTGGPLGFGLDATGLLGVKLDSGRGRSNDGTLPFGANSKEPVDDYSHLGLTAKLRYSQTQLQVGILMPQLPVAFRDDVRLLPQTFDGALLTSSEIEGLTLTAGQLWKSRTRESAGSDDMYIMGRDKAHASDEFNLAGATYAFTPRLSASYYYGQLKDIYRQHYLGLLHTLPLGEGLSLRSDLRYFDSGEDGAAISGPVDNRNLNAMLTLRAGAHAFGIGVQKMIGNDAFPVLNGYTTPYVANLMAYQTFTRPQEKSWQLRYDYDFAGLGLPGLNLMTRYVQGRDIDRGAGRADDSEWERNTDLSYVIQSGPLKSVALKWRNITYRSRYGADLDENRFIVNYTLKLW

OccD2 (formerly OpdC) = target: T3, OccD2 (formerly OpdC) (Pseudomonas aeruginosa, UniProt Q9I6X0); experiment: radiolabelled uptake in total membrane vesicles; type: biochemical; conditions: 0.25 uM 14C-arginine, 15 min, 10 mM HEPES pH 7.0, 25 C; labelled compound
T3 construct: pB22, N-terminal hexa-histidine tag; expressed in E. coli BL21 omp8, total membrane vesicles
T3 sequence (Q9I6X0 23-444): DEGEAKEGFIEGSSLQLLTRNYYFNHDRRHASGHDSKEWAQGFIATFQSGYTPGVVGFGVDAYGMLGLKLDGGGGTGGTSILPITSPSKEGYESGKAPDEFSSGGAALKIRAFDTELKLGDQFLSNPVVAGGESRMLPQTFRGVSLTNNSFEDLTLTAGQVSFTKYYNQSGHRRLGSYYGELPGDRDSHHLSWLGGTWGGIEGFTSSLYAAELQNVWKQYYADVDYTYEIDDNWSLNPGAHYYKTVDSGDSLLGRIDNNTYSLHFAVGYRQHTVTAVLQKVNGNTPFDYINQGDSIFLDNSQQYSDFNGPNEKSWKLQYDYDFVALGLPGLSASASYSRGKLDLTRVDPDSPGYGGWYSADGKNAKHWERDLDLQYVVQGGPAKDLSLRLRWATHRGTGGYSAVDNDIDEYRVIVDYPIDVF

OccD3 (formerly OpdP) = target: T4, OccD3 (formerly OpdP) (Pseudomonas aeruginosa, UniProt Q9HVS0); experiment: radiolabelled uptake in total membrane vesicles; type: biochemical; conditions: 0.25 uM 14C-arginine, 15 min, 10 mM HEPES pH 7.0, 25 C; labelled compound
T4 construct: pB22, N-terminal hexa-histidine tag; expressed in E. coli BL21 omp8, total membrane vesicles
T4 sequence (Q9HVS0 26-484): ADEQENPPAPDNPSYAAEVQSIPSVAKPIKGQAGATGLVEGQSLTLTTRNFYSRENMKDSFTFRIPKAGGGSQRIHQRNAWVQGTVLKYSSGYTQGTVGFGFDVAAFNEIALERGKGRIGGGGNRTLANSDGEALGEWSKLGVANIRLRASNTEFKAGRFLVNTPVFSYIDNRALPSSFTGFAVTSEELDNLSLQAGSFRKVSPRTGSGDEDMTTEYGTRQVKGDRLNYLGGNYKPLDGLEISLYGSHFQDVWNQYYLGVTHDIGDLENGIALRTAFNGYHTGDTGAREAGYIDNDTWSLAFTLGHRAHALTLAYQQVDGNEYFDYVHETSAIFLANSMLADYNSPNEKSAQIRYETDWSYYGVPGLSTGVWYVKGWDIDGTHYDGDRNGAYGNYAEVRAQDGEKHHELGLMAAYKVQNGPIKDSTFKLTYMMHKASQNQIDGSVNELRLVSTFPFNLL

OccD1 (formerly OprD) [3] = target: T1, OccD1 (formerly OprD); experiment: competition of arginine uptake in membrane vesicles; type: biochemical; conditions: 10-fold excess over 0.25 uM 14C-arginine, pH 7.0, 25 C
OccK7 = target: T5, OccK7 (Pseudomonas aeruginosa, UniProt Q9I4U9); experiment: competition of benzoate uptake in membrane vesicles; type: biochemical; conditions: 10-fold excess over radiolabelled benzoate, pH 7.0
T5 construct: gene PA1025; pB22, N-terminal hexa-histidine tag; expressed in E. coli BL21 omp8, total membrane vesicles
T5 sequence (Q9I4U9 23-416): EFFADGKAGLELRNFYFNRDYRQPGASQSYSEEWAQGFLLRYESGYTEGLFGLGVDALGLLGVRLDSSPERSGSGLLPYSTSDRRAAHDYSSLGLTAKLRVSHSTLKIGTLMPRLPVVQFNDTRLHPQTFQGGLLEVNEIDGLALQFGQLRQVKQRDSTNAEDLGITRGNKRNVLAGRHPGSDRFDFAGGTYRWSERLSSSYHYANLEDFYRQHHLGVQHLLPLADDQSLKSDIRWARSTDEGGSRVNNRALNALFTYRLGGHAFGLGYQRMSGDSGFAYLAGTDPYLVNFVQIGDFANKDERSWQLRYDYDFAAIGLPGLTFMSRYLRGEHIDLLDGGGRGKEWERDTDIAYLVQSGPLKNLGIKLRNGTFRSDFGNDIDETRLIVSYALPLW

OccK2 = target: T6, OccK2 (Pseudomonas aeruginosa, UniProt Q9I6P8); experiment: competition of radiolabelled uptake in total membrane vesicles; type: biochemical; conditions: vs 0.5 uM 3H-glucuronate, 5 uM unlabelled compound, 10 mM HEPES pH 7.0, 25 C, 10 min
T6 construct: gene PA0240; pB22, N-terminal hexa-histidine tag; expressed in E. coli BL21 omp8, total membrane vesicles
T6 sequence (Q9I6P8 25-421): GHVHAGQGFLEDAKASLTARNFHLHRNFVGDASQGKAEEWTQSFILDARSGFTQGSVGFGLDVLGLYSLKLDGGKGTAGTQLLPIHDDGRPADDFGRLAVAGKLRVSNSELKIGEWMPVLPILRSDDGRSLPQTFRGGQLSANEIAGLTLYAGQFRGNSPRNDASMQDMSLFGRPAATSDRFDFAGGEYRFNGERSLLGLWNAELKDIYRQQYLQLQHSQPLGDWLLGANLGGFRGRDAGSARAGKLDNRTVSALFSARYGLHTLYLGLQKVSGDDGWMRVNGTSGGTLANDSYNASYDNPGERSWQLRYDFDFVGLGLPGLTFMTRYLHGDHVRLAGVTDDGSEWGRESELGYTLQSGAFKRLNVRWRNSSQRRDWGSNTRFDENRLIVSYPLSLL
Excerpt: competition of radiolabelled uptake in total membrane vesicles on OccK2

OccK1 (formerly OpdK) = target: T7, OccK1 (formerly OpdK) (Pseudomonas aeruginosa, UniProt Q9HUR5); experiment: as above; type: biochemical; conditions: vs 0.5 uM 3H-benzoate, 5 uM unlabelled compound, 10 mM HEPES pH 7.0, 25 C, 10 min
T7 construct: pB22, N-terminal hexa-histidine tag; expressed in E. coli BL21 omp8, total membrane vesicles; purified protein for crystals
T7 sequence (Q9HUR5 28-417): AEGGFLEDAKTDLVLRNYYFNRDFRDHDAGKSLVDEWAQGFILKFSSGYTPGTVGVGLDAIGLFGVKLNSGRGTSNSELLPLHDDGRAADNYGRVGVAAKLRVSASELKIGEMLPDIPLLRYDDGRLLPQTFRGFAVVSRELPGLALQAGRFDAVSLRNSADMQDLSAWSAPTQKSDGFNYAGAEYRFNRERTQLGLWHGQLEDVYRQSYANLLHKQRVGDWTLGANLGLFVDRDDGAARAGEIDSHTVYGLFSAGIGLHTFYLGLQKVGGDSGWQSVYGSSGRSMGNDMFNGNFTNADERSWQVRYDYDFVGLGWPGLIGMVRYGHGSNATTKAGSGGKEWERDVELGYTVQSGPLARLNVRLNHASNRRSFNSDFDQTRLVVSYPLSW
Excerpt: competition of radiolabelled uptake in total membrane vesicles on OccK1 (formerly OpdK)

OccK3 [4] = target: T8, OccK3 (Pseudomonas aeruginosa, UniProt Q9I202); experiment: radiolabelled uptake in total membrane vesicles; type: biochemical; conditions: 0.5 uM 3H-pyroglutamate, 15 min, 10 mM HEPES pH 7.0, 25 C; labelled compound
T8 construct: gene opdO; pB22, N-terminal hexa-histidine tag; expressed in E. coli BL21 omp8, total membrane vesicles; purified protein for liposome swelling
T8 sequence (Q9I202 26-409): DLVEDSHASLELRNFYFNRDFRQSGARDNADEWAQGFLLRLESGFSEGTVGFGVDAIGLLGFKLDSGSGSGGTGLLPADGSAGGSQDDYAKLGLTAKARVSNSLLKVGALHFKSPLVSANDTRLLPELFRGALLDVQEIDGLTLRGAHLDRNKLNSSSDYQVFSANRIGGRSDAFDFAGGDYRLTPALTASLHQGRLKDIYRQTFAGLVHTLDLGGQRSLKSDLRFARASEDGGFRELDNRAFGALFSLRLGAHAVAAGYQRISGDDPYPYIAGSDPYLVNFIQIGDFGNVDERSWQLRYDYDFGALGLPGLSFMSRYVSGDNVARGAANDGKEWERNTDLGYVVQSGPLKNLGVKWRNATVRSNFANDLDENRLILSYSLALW

OccK3 [5] = target: T8, OccK3; experiment: competition of pyroglutamate uptake in membrane vesicles; liposome swelling; type: biochemical; conditions: 10-fold excess over radiolabelled pyroglutamate, pH 7.0; uptake confirmed by liposome swelling

## C[C@@H](O)[C@H]1C(=O)N2C(C(=O)O)=C(SCCN=CN)C[C@H]12 [imipenem]
OccD1 (formerly OprD) [1]
  % uptake remaining in 10-fold excess: For OccD1, inhibition of arginine uptake is caused only by imipenem and meropenem

## Arg-Arg dipeptide
OccD1 (P. aeruginosa)
  uptake of radiolabeled arginine by OccD1 in E. coli BL21 omp8 total membrane vesicles in the presence of a 10-fold excess of the unlabeled compound, as a percentage of uptake without it: 40%

## NCCCC[C@H](N)C(=O)O [Lysine]
OccD1 (formerly OprD) [2]
  OccD1: 3±1%

## O=C(O)Cc1ccccc1 [phenylacetate]
OccK4
  radiolabelled uptake in total membrane vesicles: OccK4 was indeed the most efficient phenylacetate uptake channel of the proteins tested

## N=C(N)NCCC[C@H](N)C(=O)O [Arginine]
OccD2 (formerly OpdC)
  radiolabelled uptake in total membrane vesicles: OccD2 and OccD3, while efficient in arginine uptake
OccD3 (formerly OpdP)
  radiolabelled uptake in total membrane vesicles: The efficient arginine uptake mediated by OccD3 is noteworthy
OccD1 (formerly OprD) [2]; self-competition
  OccD1: 2±1%

## C[C@@H](O)[C@H]1C(=O)N2C(C(=O)O)=C(S[C@@H]3CN[C@H](C(=O)N(C)C)C3)[C@H](C)[C@H]12 [meropenem]
OccD1 (formerly OprD) [3]
  % uptake remaining in 10-fold excess: For OccD1, inhibition of arginine uptake is caused only by imipenem and meropenem
OccK7
  % uptake remaining in 10-fold excess: OccK7-mediated transport is lowered very efficiently by meropenem

## NCCC[C@H](N)C(=O)O [Ornithine]
OccD1 (formerly OprD) [2]
  OccD1: 1±2%

## O=C(O)[C@H]1OC(O)[C@H](O)[C@@H](O)[C@@H]1O (some centres unmarked) [glucuronate]
OccK2; self-competition
  % radiolabelled uptake remaining: 3±3%

## CCCCCC(=O)O [caproate]
OccK1 (formerly OpdK)
  OccK1: 20±5%

## O=C(O)c1ccccc1 [benzoate]
OccK2
  OccK2: 20±6%
OccK1 (formerly OpdK); self-competition, error printed as '+'
  OccK1: 1+3

## O=C(O)c1ccc([N+](=O)[O-])cc1 [4-nitrobenzoate]
OccK1 (formerly OpdK)
  OccK1: 16±3%

## O=C1CC[C@@H](C(=O)O)N1 [pyroglutamate]
OccK3 [4]
  radiolabelled uptake in total membrane vesicles: the channel that is most efficient in pyroglutamate uptake (OccK3)
OccK2
  OccK2: 25±2%
OccK1 (formerly OpdK)
  OccK1: 15±1%

## CO/N=C(\C(=O)N[C@@H]1C(=O)N2C(C(=O)O)=C(COC(C)=O)CS[C@H]12)c1csc(N)n1 [cefotaxime]
OccK3 [5]
  % uptake remaining in 10-fold excess: OccK3-mediated transport is affected only with the cephalosporin cefotaxime

## N[C@@H](Cc1cnc[nH]1)C(=O)O [Histidine]
OccD1 (formerly OprD) [2]
  OccD1: 12±2%
